The values below come from patent US10100005B1 (Eclipse Therapeutics, LLC, priority 2017, dated 2018).

Holding throughout (assay type): physicochemical
The nature of data set [1]: Solubility testing in sodium phosphate buffer. The following applies: thermodynamic from solid; aqueous buffer, 0.02 molar dibasic sodium phosphate; sonicated, undissolved solid weighed. As to the method:
Compounds of Formulas I and II, prepared as described in the examples above, were tested to determine their solubility in a sodium phosphate buffer.
An aqueous buffer solution comprising 0.02 molar dibasic sodium phosphate was prepared. A weighted amount of solid was sonicated in the buffer, and then centrifuged to collect the undissolved material. The undissolved solid was dried in vacuuo and weighed. The mass of the undissolved portion was then used to calculate the mass that was successfully dissolved in the known volume of buffer.

Data set [2] in a line: In vitro testing: mesalamine (5-ASA) evolution from 5-glyoxyliminosalicylic acid in buffered saline, by HPLC. As to the method: The vial was held at ambient temperature for 22.75 hours and sampled. […] No other peaks were present.
Without being bound to a particular theory, it is believed that for 5-glyoxyliminosalicylic acid, the presence of chloride greatly increases the rate of mesalamine evolution.

A short description of data set [3]: Solution stability in aqueous sodium phosphate buffer (visual, photographs). The following applies: for appearance of solution after storage: 11 mg in 5 ml 0.02 molar dibasic sodium phosphate buffer, ambient temperature, 3 days. As to the method: An aqueous buffer solution comprising 0.02 molar dibasic sodium phosphate was prepared. An 11 mg sample of 5-glyoxyliminosalicylic acid (Formula Ia-i) was added to a vial containing 5 ml of the buffer solution. […] Both vials were stored at ambient temperature.

A short description of data set [4]: In vitro testing: decomposition to 5-ASA in phosphate buffer (pH 6.5), by infusion MS and LCMS. The following applies: 10 mg in 10 ml phosphate buffer (pH 6.5) overnight. As to the method: 10 mg of 5-ethylglyoxyliminosalicylic acid (prepared as described in Example 4 above) was stored in 10 ml phosphate buffer (pH 6.5) overnight.

In general, solubility refers to the dissolved amount per volume that the medium holds. The low end stands for little dissolved substance, the high end for much dissolved substance.

Compound `COc1cc(/C=N\c2ccc(O)c(C(=O)O)c2)ccc1O` [Formula IIa-i, 5-vanilliniminosalicylic acid] had a solubility in data set [1] of 3.45 mg/mL.
On the same count and under the same terms, under `COc1cc(/C=N\c2ccc(C(=O)O)c(O)c2)ccc1O` [Formula IIb-i, 4-vanilliniminosalicylic acid] stands 7.35 mg/mL.
In the case of `O=C(O)/C=N\c1ccc(O)c(C(=O)O)c1` [Formula Ia-i, 5-glyoxyliminosalicylic acid], the “percentage of 5-aminosalicylic acid by HPLC” value in data set [2] (12 mg compound + 12 mg 5-aminosalicylic acid in 6 ml buffered saline, ambient temperature, 22.75 hours, no other peaks) is listed as 87%. Besides, in data set [2] (same experiment in the absence of saline), the mesalamine evolution result is given as “very little mesalamine evolution”. In data set [1], this compound showed a solubility of 11 mg/mL. For the same compound, the “appearance of solution after storage” value in data set [3] is “still clear and lightly colored”. In addition, the “storage stability relative to mesalazine” value in data set [3] (dissolved in aqueous sodium phosphate buffer, 3 days ambient) is given as “significantly greater degree of storage stability than mesalazine”.
Compound `CCOC(=O)/C=N\c1ccc(O)c(C(=O)OCC)c1` [Formula Ia-ii, ethyl 5-ethylglyoxyliminosalicylate] gave a solubility in data set [1] of 0.13 mg/mL.
As for `CCOC(=O)/C=N\c1ccc(O)c(C(=O)O)c1` [Formula Ia-iii, 5-ethylglyoxyliminosalicylic acid], in data set [1], the solubility was found to be 12 mg/mL. In data set [4], the “decomposed to 5-ASA (LCMS, single ion monitoring)” value was approximately 90% and the “decomposition to release 5-ASA (infusion MS)” value was “partially decomposed”.
In data set [1], `O=C(O)/C=N/c1ccc(C(=O)O)c(O)c1` [Formula Ib-i, 4-glyoxyliminosalicylic acid] had a solubility of 17.3 mg/mL.
Turning to `CCOC(=O)C=Nc1ccc(C(=O)O)c(O)c1` [Formula Ib-ii, 4-ethylgloxyliminosalicylic acid], the solubility in data set [1] came to 10.2 mg/mL.
In the case of `Nc1ccc(O)c(C(=O)O)c1` [Mesalazine, 5-aminosalicylic acid, reference compound], the “appearance of solution after storage” value in data set [3] is “turned a dark brown color, and a significant amount of brown solid material precipitated”.
